Test results published in patent US20250263459A1, “STABILIZED PACAP PEPTIDE” (SENJU PHARMACEUTICAL CO., LTD., priority 2019, published 2025).
Starred links: 1 amine or outer side, 2 acyl side, 3 side chain; linkers in the order of their positions; H or OH if unused. Non-standard residues stand in square brackets, D forms with d. Residues, ends and D or L forms follow the SMILES beside them. *: point of attachment. Ala(1H-tetrazol-5-yl) = N[C@@H](Cc1nnn[nH]1)C(=O)O; X2 = O=C([C@H](Cc1noc(=O)[nH]1)N[*:1])[*:2]; X1 = O=C([C@@H](Cc1nnn[nH]1)N[*:1])[*:2]; X3 = O=C([C@H](CCc1nnn[nH]1)N[*:1])[*:2]; Isovaleryl = CC(C)CC(=O)*; Nle = CCCC[C@H](N)C(=O)O; Propionyl = CCC(=O)*

Tests used:
[1] = Stability test 1: survival rate of peptide in phosphate buffer (pH 7.0) after storage, HPLC; assay type: physicochemical; conditions: 100 μM peptide, phosphate buffer pH 7.0, 40° C.; for survival rate after correction for water, 40° C. 2 week: 2 weeks (Table 6); for survival rate after correction for water, 40° C. 8 week: 8 weeks (Table 6)
Procedure: The 1.0 mM peptide solutions were then diluted with phosphate buffer to 100 μM. […] The prepared peptide solutions were incubated for one month or 2 months in a 40° C. thermostatic bath to obtain stored samples.
Using the total weight of the aqueous peptide solution and storage vessel as the specimen weight, measurements were recorded as the specimen weights before storage and the specimen weights after storage under different storage conditions. The empty weight of the storage vessel was also measured, and the moisture permeability was determined by the following formula.
After stirring the standard sample and the stored samples with a vortex mixer, each peptide solution was transferred to an HPLC vial (Deactivated Qsert vial by Waters Co.). Reverse-phase HPLC (HPLC system: Prominence by Shimadzu Corp.) was conducted under the conditions shown in Table 3 below for analysis of the peptide solutions, and chromatograms were obtained.
The peak area value for the peptide in the chromatogram was calculated, and the survival rate (survival rate before correction for water) was calculated using formula (2). The survival rate after correction for water was also calculated from the survival rate before correction for water using formula (3) to take into account the permeability of the container.
Peptide solutions prepared by the same method as [Measuring sample preparation 1] for the peptides synthesized in Example 2 (peptides 13 to 16) were incubated for 2 weeks and 8 weeks in a thermostatic bath at 40° C. to obtain stored samples.
Peptide solutions prepared by the same method as [Measuring sample preparation 1] for the peptides synthesized in Example 2 (peptides 17 to 21) were incubated for 4 weeks in a thermostatic bath at 40° C. to obtain stored samples.
A peptide solution prepared by the same method as [Measuring sample preparation 1] for peptide 22 synthesized in Example 2 was incubated for 1 week and 4 weeks in a thermostatic bath at 40° C. to obtain stored samples.

[2] = 100 μM peptide, Tris buffer pH 7.0, 60° C.
Procedure: The solution was filtered with a Chromatdisk (product of Merck Millipore, Millex-GV, 0.22 μm). The filtrate was diluted to 100 μM with Tris buffer (pH 7.0) and dispensed into a tube (Protein LoBind Tube by Eppendorf Co.). The prepared peptide solutions were incubated for 1 week or 2 weeks in a 60° C. thermostatic bath to obtain stored samples. A simultaneously prepared sample among the peptide solutions that was not stored was used as a standard sample (initial sample). The standard sample and the stored samples were stored at −30° C. until sample analysis.
• Column: XSelect CSH C18 by Waters Co., 5 μm, 4.6×250 mm • Guard column: XSelect CSH C18 by Waters Co., 5 μm, 4.6×20 mm Guard Cartridge • Detection wavelength: 220 nm • Mobile phase A: 0.1% formic acid aqueous solution • Mobile phase B: 0.1% acetonitrile formate solution • Measuring time: 20 minutes • Measuring sample injection rate: 50 μL • Flow rate: 1.0 mL/min • Column temperature: 40° C. • Sample cooler: 25° C. • Mobile phase delivery: The mixing ratio of mobile phase A and mobile phase B was varied as shown in Table 14 for linear concentration gradient control.

Molecule | survival rate after correction for water, 40° C. 2 week [1] [%] | survival rate after correction for water, 40° C. 8 week [1] [%] | survival rate after correction for water, 60° C. 1 week preservation [2] [%] | survival rate after correction for water, 60° C. 2 weeks preservation [2] [%] | other results
CCCC[C@H](NC(=O)[C@H](CCC(N)=O)NC(=O)[C@H](CCCCN)NC(=O)[C@H](CCCNC(=N)N)NC(=O)[C@H](Cc1ccc(O)cc1)NC(=O)[C@H](CCCNC(=N)N)NC(=O)[C@H](CO)NC(=O)[C@H](Cc1ccc(O)cc1)NC(=O)[C@H](CO)NC(=O)[C@@H](Cc1nnn[nH]1)NC(=O)[C@@H](NC(=O)[C@H](Cc1ccccc1)NC(=O)[C@@H](NC(=O)CNC(=O)[C@@H](Cc1nnn[nH]1)NC(=O)[C@H](CO)NC(=O)[C@@H](N)Cc1c[nH]cn1)[C@@H](C)CC)[C@@H](C)O)C(=O)N[C@@H](C)C(=O)N[C@H](C(=O)N[C@@H](CCCCN)C(=O)N[C@@H](CCCCN)C(=O)N[C@@H](Cc1ccc(O)cc1)C(=O)N[C@@H](CC(C)C)C(=O)N[C@@H](C)C(=O)N[C@@H](C)C(=O)N[C@H](C(=O)N[C@@H](CC(C)C)C(N)=O)C(C)C)C(C)C [Peptide 13, HSTz(D)GI FTTz(D)SY SRYRK QNIAVK KYLAA VL] (H-HS[X1]GIFT[X1]SYSRYRKQ[Nle]AVKKYLAAVL-NH2) | 96.2 | 84.6 |  |  | 
CCCC[C@H](NC(=O)[C@H](CCC(N)=O)NC(=O)[C@H](CCCCN)NC(=O)[C@H](CCCNC(=N)N)NC(=O)[C@H](Cc1ccc(O)cc1)NC(=O)[C@H](CCCNC(=N)N)NC(=O)[C@H](CO)NC(=O)[C@H](Cc1ccc(O)cc1)NC(=O)[C@H](CO)NC(=O)[C@@H](Cc1nnn[nH]1)NC(=O)[C@@H](NC(=O)[C@H](Cc1ccccc1)NC(=O)[C@@H](NC(=O)CNC(=O)[C@H](Cc1nnn[nH]1)NC(=O)[C@H](CO)NC(=O)[C@@H](N)Cc1c[nH]cn1)[C@@H](C)CC)[C@@H](C)O)C(=O)N[C@@H](C)C(=O)N[C@H](C(=O)N[C@@H](CCCCN)C(=O)N[C@@H](CCCCN)C(=O)N[C@@H](Cc1ccc(O)cc1)C(=O)N[C@@H](CC(C)C)C(=O)N[C@@H](C)C(=O)N[C@@H](C)C(=O)N[C@H](C(=O)N[C@@H](CC(C)C)C(N)=O)C(C)C)C(C)C [Peptide 14, HSTzGI FTTz(D)SY SRYRK QNIAVK KYLAA VL] (H-HS[Ala(1H-tetrazol-5-yl)]GIFT[X1]SYSRYRKQ[Nle]AVKKYLAAVL-NH2) | 96.3 | 84.5 |  |  | 
CCCC[C@H](NC(=O)[C@H](CCC(N)=O)NC(=O)[C@H](CCCCN)NC(=O)[C@H](CCCNC(=N)N)NC(=O)[C@H](Cc1ccc(O)cc1)NC(=O)[C@H](CCCNC(=N)N)NC(=O)[C@H](CO)NC(=O)[C@H](Cc1ccc(O)cc1)NC(=O)[C@H](CO)NC(=O)[C@H](Cc1nnn[nH]1)NC(=O)[C@@H](NC(=O)[C@H](Cc1ccccc1)NC(=O)[C@@H](NC(=O)CNC(=O)[C@@H](Cc1nnn[nH]1)NC(=O)[C@H](CO)NC(=O)[C@@H](N)Cc1c[nH]cn1)[C@@H](C)CC)[C@@H](C)O)C(=O)N[C@@H](C)C(=O)N[C@H](C(=O)N[C@@H](CCCCN)C(=O)N[C@@H](CCCCN)C(=O)N[C@@H](Cc1ccc(O)cc1)C(=O)N[C@@H](CC(C)C)C(=O)N[C@@H](C)C(=O)N[C@@H](C)C(=O)N[C@H](C(=O)N[C@@H](CC(C)C)C(N)=O)C(C)C)C(C)C [Peptide 15, HSTz(D)GI FTTzSY SRYRK QNIAVK KYLAA VL] (H-HS[X1]GIFT[Ala(1H-tetrazol-5-yl)]SYSRYRKQ[Nle]AVKKYLAAVL-NH2) | 95.6 | 81.3 |  |  | 
CCCC[C@H](NC(=O)[C@H](CCC(N)=O)NC(=O)[C@H](CCCCN)NC(=O)[C@H](CCCNC(=N)N)NC(=O)[C@H](Cc1ccc(O)cc1)NC(=O)[C@H](CCCNC(=N)N)NC(=O)[C@H](CO)NC(=O)[C@H](Cc1ccc(O)cc1)NC(=O)[C@H](CO)NC(=O)[C@H](CCc1nnn[nH]1)NC(=O)[C@@H](NC(=O)[C@H](Cc1ccccc1)NC(=O)[C@@H](NC(=O)CNC(=O)[C@H](Cc1nnn[nH]1)NC(=O)[C@H](CO)NC(=O)[C@@H](N)Cc1c[nH]cn1)[C@@H](C)CC)[C@@H](C)O)C(=O)N[C@@H](C)C(=O)N[C@H](C(=O)N[C@@H](CCCCN)C(=O)N[C@@H](CCCCN)C(=O)N[C@@H](Cc1ccc(O)cc1)C(=O)N[C@@H](CC(C)C)C(=O)N[C@@H](C)C(=O)N[C@@H](C)C(=O)N[C@H](C(=O)N[C@@H](CC(C)C)C(N)=O)C(C)C)C(C)C [Peptide 16, HSTzGI FTegTzSY SRYRK QNIAVK KYLAA VL] (H-HS[Ala(1H-tetrazol-5-yl)]GIFT[X3]SYSRYRKQ[Nle]AVKKYLAAVL-NH2) | 94.4 | 80.3 |  |  | 
CCCC[C@H](NC(=O)[C@H](CCC(N)=O)NC(=O)[C@H](CCCCN)NC(=O)[C@H](CCCNC(=N)N)NC(=O)[C@H](Cc1ccc(O)cc1)NC(=O)[C@H](CCCNC(=N)N)NC(=O)[C@H](CO)NC(=O)[C@H](Cc1ccc(O)cc1)NC(=O)[C@H](CO)NC(=O)[C@H](Cc1nnn[nH]1)NC(=O)[C@@H](NC(=O)[C@H](Cc1ccccc1)NC(=O)[C@@H](NC(=O)CNC(=O)[C@H](Cc1nnn[nH]1)NC(=O)[C@H](CO)NC(=O)[C@H](Cc1c[nH]cn1)NC(=O)CC)[C@@H](C)CC)[C@@H](C)O)C(=O)N[C@@H](C)C(=O)N[C@H](C(=O)N[C@@H](CCCCN)C(=O)N[C@@H](CCCCN)C(=O)N[C@@H](Cc1ccc(O)cc1)C(=O)N[C@@H](CC(C)C)C(=O)N[C@@H](C)C(=O)N[C@@H](C)C(=O)N[C@H](C(=O)N[C@@H](CC(C)C)C(N)=O)C(C)C)C(C)C [Peptide 17, HSTzGI FTTzSY SRYRK QNIAVK KYLAA VL] (Propionyl-HS[Ala(1H-tetrazol-5-yl)]GIFT[Ala(1H-tetrazol-5-yl)]SYSRYRKQ[Nle]AVKKYLAAVL-NH2) |  |  |  |  | survival rate after correction for water, 40° C. 4 week ([1]; 4 weeks (Table 8)): 59.2%
CCCC[C@H](NC(=O)[C@H](CCC(N)=O)NC(=O)[C@H](CCCCN)NC(=O)[C@H](CCCNC(=N)N)NC(=O)[C@H](Cc1ccc(O)cc1)NC(=O)[C@H](CCCNC(=N)N)NC(=O)[C@H](CO)NC(=O)[C@H](Cc1ccc(O)cc1)NC(=O)[C@H](CO)NC(=O)[C@H](Cc1nnn[nH]1)NC(=O)[C@@H](NC(=O)[C@H](Cc1ccccc1)NC(=O)[C@@H](NC(=O)CNC(=O)[C@H](Cc1nnn[nH]1)NC(=O)[C@H](CO)NC(=O)[C@H](Cc1c[nH]cn1)NC(=O)CC(C)C)[C@@H](C)CC)[C@@H](C)O)C(=O)N[C@@H](C)C(=O)N[C@H](C(=O)N[C@@H](CCCCN)C(=O)N[C@@H](CCCCN)C(=O)N[C@@H](Cc1ccc(O)cc1)C(=O)N[C@@H](CC(C)C)C(=O)N[C@@H](C)C(=O)N[C@@H](C)C(=O)N[C@H](C(=O)N[C@@H](CC(C)C)C(N)=O)C(C)C)C(C)C [Peptide 21] (Isovaleryl-HS[Ala(1H-tetrazol-5-yl)]GIFT[Ala(1H-tetrazol-5-yl)]SYSRYRKQ[Nle]AVKKYLAAVL-NH2) |  |  |  |  | survival rate after correction for water, 40° C. 4 week ([1]; 4 weeks (Table 8)): 69.0%
CCCC[C@H](NC(=O)[C@H](CCC(N)=O)NC(=O)[C@H](CCCCN)NC(=O)[C@H](CCCNC(=N)N)NC(=O)[C@H](Cc1ccc(O)cc1)NC(=O)[C@H](CCCNC(=N)N)NC(=O)[C@H](CO)NC(=O)[C@H](Cc1ccc(O)cc1)NC(=O)[C@H](CO)NC(=O)[C@H](Cc1noc(=O)[nH]1)NC(=O)[C@@H](NC(=O)[C@H](Cc1ccccc1)NC(=O)[C@@H](NC(=O)CNC(=O)[C@H](Cc1noc(=O)[nH]1)NC(=O)[C@H](CO)NC(=O)[C@H](Cc1c[nH]cn1)NC(C)=O)[C@@H](C)CC)[C@@H](C)O)C(=O)N[C@@H](C)C(=O)N[C@H](C(=O)N[C@@H](CCCCN)C(=O)N[C@@H](CCCCN)C(=O)N[C@@H](Cc1ccc(O)cc1)C(=O)N[C@@H](CC(C)C)C(=O)N[C@@H](C)C(=O)N[C@@H](C)C(=O)N[C@H](C(=O)N[C@@H](CC(C)C)C(N)=O)C(C)C)C(C)C [Peptide 22, HS(50xa)GI FT(50xa)SY SRYRK QNIAVK KYLAA VL] (Ac-HS[X2]GIFT[X2]SYSRYRKQ[Nle]AVKKYLAAVL-NH2) |  |  |  |  | survival rate after correction for water, 40° C. 1 week ([1]; 1 week (Table 10)): 89.7%; survival rate after correction for water, 40° C. 4 week ([1]; 4 weeks (Table 10)): 79.7%
HSTzGIFTTzSYSRYRKQLAVKKYLAAVL [Reference Example 4] |  |  | 91.7 | 84.8 | 
HSTzGIFTTzSYSRYRKQLAVKKYLAAVL [Reference Example 6] (HSXGIFTXSYSRYRKQLAVKKYLAAVL; N-acetyl; C-terminal amide; Tz residues; modified PACAP peptide; MOD_RES (1)..(1) …ON; MUTAGEN (3)..(3) Xaa is amino acid wherein carboxy group of asparatic acid is substituted with tetrazole; MUTAGEN (8)..(8) Xaa is amino acid wherein carboxy group of asparatic acid is substituted with tetrazole) |  |  | 98.4 | 92.8 | 
HSTzGIFTTzSYSRYRKQNIAVKKYLAAVL [Reference Example 3] |  |  | 91.3 | 82.4 | 
